# Reference: US20240228446A1, “PREPARATION METHOD FOR BICYCLIC COMPOUND AND APPLICATION AS ANTIFUNGAL AGENT” (priority 2021, published 2024)
# System: Candida albicans ATCC MYA-2876
# Assay: Minimal inhibitory concentration (MIC) test on fungal growth (CLSI M27, yeasts)
# Format: cell-based
# Details: Candida albicans, 24 h, read-out: MIC Candida albicans ATCC MYA-2876
# Description: (§1) • RPMI1640 medium: Brand: Gibco, article number: 31800-014 • Sabouraud dextrose agar (SDA): Brand: Hope Bio, article number: HB0253-81 • Voriconazole: Brand: Adamas, article number: 22105A • Amphotericin B: Brand: AbCam, article number: ab141199
# (§2) MIC test was conducted in accordance with the guidelines and requirements of CLSI M27 (for yeasts) and M38 (for Aspergillus).
# (§3) Strain preparation: The strains were inoculated 1 day in advance by streaking on SDA plates with glycerol strains stored at −80° C. The strains were cultured at 35° C. and 40 to 60% humidity for 18 to 24 hours. Streak inoculation of Aspergillus fumigatus and Cryptococcus neoformans was required to be done 3 days and 2 days in advance, respectively.
# (§4) Preparation of culture medium and compounds: The liquid culture medium RPMI was prepared with pure water, and 0.165 mol/L MOPS was added to adjust the pH to 7.0. The mixture was filtered with a 0.22 μm-membrane filter, sterilized, and stored at 4° C. (no more than 3 months). 0.85% physiological saline was sterilized at 121° C. for 30 min and then stored at room temperature (no more than 1 week). The compounds were dissolved in DMSO to 12.8 mg/mL and stored at −20° C.
# For yeast, 3 to 5 colonies were selected from the SDA plate on the day of testing and fully suspended in 5 mL of sterilized 0.85% physiological saline. The turbidity of the bacterial suspension was measured with a turbidimeter, and the turbidity was adjusted to approximately 0.2. The bacterial suspension was 50-fold and 20-fold (1000-fold in total) diluted in RPMI1640 medium, respectively, to serve as the inoculum. The final inoculum concentration was 500 to 2500 CFU/mL.
# (§5) The compound was diluted to the highest 800 μg/mL (or 400 μg/mL) with DMSO, and a 10-step 2-fold gradient dilution was performed, resulting in 11 concentrations. 2 μL of the gradient-diluted compound was transferred to the corresponding wells of a 96-well plate, and then 198 μL of the inoculum was transferred to the test plate. The plate was incubated at 35° C. for 24 hours (Aspergillus fumigatus and Cryptococcus neoformans were incubated for 48 and 72 hours, respectively).
# (§6) After the incubation, the growth of the fungi was visually observed. The lowest concentration of the compound that inhibited the growth of yeast by 50% (inhibited Aspergillus by 100%) was defined as the minimum inhibitory concentration (MIC, μg/mL). A magnifying glass or reading at OD530 nm could be used to assist in determining the MIC. Photos were taken of the test plates for record keeping.
row,Structure (SMILES),MIC [µg/mL]
1,OC(Cn1cnnn1)(c1ccc(F)cc1F)C(F)(F)C12CC(c3ccc(Oc4ccccn4)cc3)(C1)C2 (stereo not shown) [Compound 71],0.03
2,OC(Cn1cnnn1)(c1ccc(F)cc1F)C(F)(F)C12CC(c3cnc(NCC(F)(F)F)nc3)(C1)C2 (stereo not shown) [Compound 111],0.016

# Same assay, conditions: Candida albicans; lowest concentration inhibiting growth of yeast by 50%; 35° C., 24 hours; RPMI1640; read-out: MIC Candida albicans ATCC MYA-2876
row,MIC [µg/mL],Structure (SMILES)
1,≤ 0.0039,O[C@H](COc1ccc(C23CC(C(F)(F)[C@](O)(Cn4cnnn4)c4ccc(F)cc4F)(C2)C3)cc1)CC(F)(F)F (relative stereo) [Compound 142A]
2,0.0078,OC(COc1ccc(C23CC(C(F)(F)C(O)(Cn4cnnn4)c4ccc(F)cc4F)(C2)C3)cc1)C1CC1 (stereo not shown) [Compound 144]
3,≤ 0.0039,O[C@@](Cn1cncn1)(c1ccc(F)cc1F)C(F)(F)C12CC(c3ccc(OCC(F)(F)F)cc3)(C1)C2 (stereo in doubt) [Compound 2A]
4,0.0078,OC(Cn1cncn1)(CC12CC(c3ccc(OCC(F)(F)F)cc3)(C1)C2)c1ccc(F)cc1F (stereo not shown) [Compound 49]
5,0.015,COc1ccc(C23CC(C(F)(F)C(O)(Cn4cnnn4)c4ccc(F)cc4F)(C2)C3)cc1 (stereo not shown) [Compound 1]
6,0.016,OCC(F)(F)COc1ccc(C23CC(C(F)(F)C(O)(Cn4cnnn4)c4ccc(F)cc4F)(C2)C3)cc1 (stereo not shown) [Compound 50]
7,0.0078,O=C(COc1ccc(C23CC(C(F)(F)C(O)(Cn4cncn4)c4ccc(F)cc4F)(C2)C3)cc1)NC1CC1 (stereo not shown) [Compound 129]
8,0.016,OC(Cn1cncn1)(c1ccc(Cl)cc1F)C(F)(F)C12CC(c3ccc(OCC(F)(F)F)cc3)(C1)C2 (stereo not shown) [Compound 5]
9,0.13,Oc1ccc(C23CC(C(F)(F)C(O)(Cn4cnnn4)c4ccc(F)cc4F)(C2)C3)cc1 (stereo not shown) [Compound 20]
10,1,Oc1ccc(C23CC(C(F)(F)[C@@](O)(Cn4cncn4)c4ccc(F)cc4F)(C2)C3)cc1 [Compound 21B]
11,0.016,COC(=O)c1ccc(C23CC(C(F)(F)C(O)(Cn4cnnn4)c4ccc(F)cc4F)(C2)C3)cc1 (stereo not shown) [Compound 77]
12,0.03,CC12CC(C(F)(F)C(O)(Cn3cnnn3)c3ccc(F)cc3F)(C1)C2 (stereo not shown) [Compound 14]
13,0.5,CN1CCC(O)(COc2ccc(C34CC(C(F)(F)C(O)(Cn5cnnn5)c5ccc(F)cc5F)(C3)C4)cc2)CC1 (stereo not shown) [Compound 38]
14,0.03,CN1CCOC(COc2ccc(C34CC(C(F)(F)C(O)(Cn5cnnn5)c5ccc(F)cc5F)(C3)C4)cc2)C1 (stereo not shown) [Compound 85]
15,0.016,CNC(=O)COc1ccc(C23CC(C(F)(F)C(O)(Cn4cnnn4)c4ccc(F)cc4F)(C2)C3)cc1 (stereo not shown) [Compound 34]
16,0.06,OC(Cn1cnnn1)(c1ccc(F)cc1F)C(F)(F)C12CC(c3cnc(OCC(F)(F)F)nc3)(C1)C2 (stereo not shown) [Compound 110]
17,0.016,OC1(COc2ccc(C34CC(C(F)(F)[C@](O)(Cn5cnnn5)c5ccc(F)cc5F)(C3)C4)cc2)COC1 (stereo in doubt) [Compound 150A]
18,0.03,OC(Cn1cnnn1)(c1ccc(F)cc1F)C(F)(F)C12CC(I)(C1)C2 (stereo not shown) [Compound 11]
19,0.0078,OC1CC(Oc2ccc(C34CC(C(F)(F)C(O)(Cn5cnnn5)c5ccc(F)cc5F)(C3)C4)cc2)C1 (stereo not shown) [Compound 39]
20,0.016,OC(Cn1cnnn1)(c1ccc(F)cc1F)C(F)(F)C12CC(c3ccc(COCC(F)(F)F)cc3)(C1)C2 (stereo not shown) [Compound 160]
21,0.016,OC(Cn1cnnn1)(c1ccc(F)cc1F)C(F)(F)C12CC(c3ccc(Cl)cc3)(C1)C2 (stereo not shown) [Compound 32]
22,0.06,OC(Cn1cnnn1)(c1ccc(F)cc1F)C(F)(F)C12CC(c3cnc(OCC(F)(F)F)cn3)(C1)C2 (stereo not shown) [Compound 107]

row,MIC [µg/mL],Structure (SMILES)
1,1,"O[C@](Cn1cncn1)(c1ccc(F)cc1F)C(F)(F)C12CC(C1)C2 (single isomer, unassigned) [Compound 10B]"
2,2,C[C@](F)(C12CC(c3ccc(OCC(F)(F)F)cc3)(C1)C2)[C@@](O)(Cn1cnnn1)c1ccc(F)cc1F [Compound 18B]
3,≤ 0.0039,OC(Cn1cncn1)(c1ccc(F)cc1F)C(F)(F)C12CC(C1)C2 (stereo not shown) [Compound 10]
4,0.03,CN1CCN(c2ccc(C34CC(C(F)(F)C(O)(Cn5cnnn5)c5ccc(F)cc5F)(C3)C4)cc2)CC1 (stereo not shown) [Compound 162]
5,0.13,CN1CC(COc2ccc(C34CC(C(F)(F)C(O)(Cn5cnnn5)c5ccc(F)cc5F)(C3)C4)cc2)C1 (stereo not shown) [Compound 75]
6,≤ 0.0039,N#Cc1ccc(C23CC(CC(O)(Cn4cncn4)c4ccc(F)cc4F)(C2)C3)cc1 (stereo not shown) [Compound 91]
7,0.03,CN1CC(Oc2ccc(C34CC(C(F)(F)C(O)(Cn5cnnn5)c5ccc(F)cc5F)(C3)C4)cc2)C1 (stereo not shown) [Compound 45]
8,0.016,OC(CNc1ccc(C23CC(C(F)(F)C(O)(Cn4cnnn4)c4ccc(F)cc4F)(C2)C3)cn1)C(F)(F)F (stereo not shown) [Compound 99]
9,0.13,CN1CCC(COc2ccc(C34CC(C(F)(F)C(O)(Cn5cnnn5)c5ccc(F)cc5F)(C3)C4)cc2)CC1 (stereo not shown) [Compound 74]
10,0.016,OC(Cn1cnnn1)(c1ccc(F)cc1F)C(F)(F)C12CC(c3ccc(OCC4(F)COC4)nc3)(C1)C2 (stereo not shown) [Compound 122]
11,0.0078,OC(COc1ccc(C23CC(C(F)(F)C(O)(Cn4cnnn4)c4ccc(F)cc4F)(C2)C3)cn1)C(F)(F)F (stereo not shown) [Compound 97]
12,0.06,N#Cc1cccc(C23CC(C(F)(F)C(O)(Cn4cnnn4)c4ccc(F)cc4F)(C2)C3)c1 (stereo not shown) [Compound 30]
13,0.06,OC(COCc1ccc(C23CC(C(F)(F)C(O)(Cn4cnnn4)c4ccc(F)cc4F)(C2)C3)cn1)C(F)(F)F (stereo not shown) [Compound 86]
14,≤ 0.0039,OC(Cn1cncn1)(c1ccc(F)cc1F)C(F)(F)C12CC(c3ccc(-n4cncn4)nc3)(C1)C2 (stereo not shown) [Compound 95]
15,0.016,O[C@@](Cn1ncnn1)(c1ccc(F)cc1F)C(F)(F)C12CC(c3cnc(OCC(F)(F)F)nc3)(C1)C2 (stereo in doubt) [Compound 110A]
16,0.06,OC(COc1cnc(C23CC(C(F)(F)C(O)(Cn4cnnn4)c4ccc(F)cc4F)(C2)C3)cn1)C(F)(F)F (stereo not shown) [Compound 108]
17,0.03,O[C@@H](CNc1ccc(C23CC(C(F)(F)[C@](O)(Cn4cnnn4)c4ccc(F)cc4F)(C2)C3)cn1)C(F)(F)F (relative stereo) [Compound 99B]
18,0.06,N#Cc1ccc(C23CC(C(F)(F)[C@@](O)(Cn4cncn4)c4ccc(F)cc4F)(C2)C3)cc1 [Compound 27B]
19,0.25,OC(Cn1cnnn1)(c1ccc(F)cc1F)C(F)(F)C12CC(c3ccc(O[C@@H]4CCNC4)cc3)(C1)C2 (stereo partly shown) [Compound 84]
20,0.06,CN1CC[C@@H](Oc2ccc(C34CC(C(F)(F)C(O)(Cn5cnnn5)c5ccc(F)cc5F)(C3)C4)cc2)C1 (stereo partly shown) [Compound 42]
21,0.25,N#Cc1ccc(C23CC(C(F)(F)[C@](O)(Cn4cnnn4)c4cc(F)ccc4F)(C2)C3)cc1 [Compound 28A]

# Same assay, conditions: lowest concentration inhibiting growth of yeast by 50%; 35° C., 24 hours; RPMI1640
row,MIC Candida albicans ATCC MYA-2876 [µg/mL],Structure (SMILES)
1,0.0078,OC(COc1ccc(C23CC(C(F)(F)C(O)(Cn4cnnn4)c4ccc(F)cc4F)(C2)C3)cc1)CC(F)(F)F (stereo not shown) [Compound 142]
2,0.0078,O[C@@](Cn1cnnn1)(c1ccc(Cl)cc1F)C(F)(F)C12CC(c3ccc(OCC(F)(F)F)cc3)(C1)C2 [Compound 7A]
3,0.06,O[C@@](Cn1cnnn1)(c1ccc(F)cc1F)C(F)(F)C12CC(C1)C2 [Compound 6A]
4,≤0.0039,O[C@@](Cn1cnnn1)(c1ccc(F)cc1F)C(F)(F)C12CC(c3ccc(Cl)cc3)(C1)C2 [Compound 32A]
5,0.0078,N#Cc1ccc(C23CC(C(F)(F)[C@@](O)(Cn4cnnn4)c4ccc(F)cc4F)(C2)C3)cc1 [Compound 8A]

# System: Aspergillus fumigatus ATCC MYA-4609
# Assay: Minimal inhibitory concentration (MIC) test on fungal growth (CLSI M38, Aspergillus)
# Format: cell-based
# Details: Aspergillus fumigatus; lowest concentration inhibiting Aspergillus by 100%; 35° C., 48 hours; RPMI1640; read-out: MIC Aspergillus fumigatus ATCC MYA-4609
# Description: as §1, §2, §3, §4
# For Aspergillus, 5 mL of physiological saline was added to cover the mycelium, and the spores were gently scraped off with a spreader. The spore suspension was then transferred to a sterile test tube. An appropriate amount of spore suspension was taken and counted under a microscope using a hemocytometer. Spore concentration was adjusted to approximately 0.4 to 5×10^4 spores/mL using RPMI1640 medium.
# as §5, §6
row,MIC [µg/mL],Structure (SMILES)
1,4,O[C@H](COc1ccc(C23CC(C(F)(F)[C@](O)(Cn4cnnn4)c4ccc(F)cc4F)(C2)C3)cc1)CC(F)(F)F (relative stereo) [Compound 142A]
2,8,OC(COc1ccc(C23CC(C(F)(F)C(O)(Cn4cnnn4)c4ccc(F)cc4F)(C2)C3)cc1)C1CC1 (stereo not shown) [Compound 144]
3,1,O[C@@](Cn1cncn1)(c1ccc(F)cc1F)C(F)(F)C12CC(c3ccc(OCC(F)(F)F)cc3)(C1)C2 (stereo in doubt) [Compound 2A]
4,1,OC(Cn1cncn1)(CC12CC(c3ccc(OCC(F)(F)F)cc3)(C1)C2)c1ccc(F)cc1F (stereo not shown) [Compound 49]
5,8,COc1ccc(C23CC(C(F)(F)C(O)(Cn4cnnn4)c4ccc(F)cc4F)(C2)C3)cc1 (stereo not shown) [Compound 1]
6,4,OCC(F)(F)COc1ccc(C23CC(C(F)(F)C(O)(Cn4cnnn4)c4ccc(F)cc4F)(C2)C3)cc1 (stereo not shown) [Compound 50]
7,4,O=C(COc1ccc(C23CC(C(F)(F)C(O)(Cn4cncn4)c4ccc(F)cc4F)(C2)C3)cc1)NC1CC1 (stereo not shown) [Compound 129]

# Same assay, conditions: lowest concentration inhibiting Aspergillus by 100%; 35° C., 48 hours; RPMI1640
row,MIC Aspergillus fumigatus ATCC MYA-4609 [µg/mL],Structure (SMILES)
1,8,OC(COc1ccc(C23CC(C(F)(F)C(O)(Cn4cnnn4)c4ccc(F)cc4F)(C2)C3)cc1)CC(F)(F)F (stereo not shown) [Compound 142]
